“And” between values parts separate entries of the source, which are not always exact repeats. Identical values can stand only once.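 How tested: cells in 96-well plates exposed to compound for 48 hours at five concentrations. GI50 is the concentration that inhibits growth by half. The concentration for full growth arrest is given as TGI.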
Columns and labels:
Assay in all cases: NCI tumour cell line growth inhibition, 48 h
NCI/ADR-RES ovarian = tested on: NCI/ADR-RES ovarian
P388 leukemia = tested on: P388 leukemia
SNB-78 CNS = tested on: SNB-78 CNS
DU-145 prostate = tested on: DU-145 prostate
DLD-1 colon = tested on: DLD-1 colon
KM20L2 colon = tested on: KM20L2 colon
HS 578T breast = tested on: HS 578T breast
MDA-N = tested on: MDA-N
LXFL 529 NSCLC = tested on: LXFL 529 NSCLC
RXF-631 renal = tested on: RXF-631 renal

| SMILES | TGI (SNB-78 CNS) | TGI (DLD-1 colon) | TGI (KM20L2 colon) | TGI (LXFL 529 NSCLC) | TGI (RXF-631 renal) | other results |
| --- | --- | --- | --- | --- | --- | --- |
| Cc1[nH]c(=O)[nH]c(=O)c1N(CCF)CCCl | 1000 µM and 1400 µM and 1210 µM | 1250 µM and 1290 µM and 830 µM | 455 µM and 1280 µM and 619 µM | – | – | GI50 (NCI/ADR-RES ovarian): 443 µM and 206 µM; TGI (NCI/ADR-RES ovarian): 820 µM and 1130 µM and 1090 µM; GI50 (P388 leukemia): 190 µM and 58.3 µM and 223 µM; TGI (P388 leukemia): 485 µM and 1330 µM and 791 µM; GI50 (SNB-78 CNS): 435 µM; TGI (DU-145 prostate): 1410 µM; GI50 (DLD-1 colon): 303 µM and 472 µM; GI50 (KM20L2 colon): 194 µM and 429 µM; TGI (HS 578T breast): 1660 µM; TGI (MDA-N): 828 µM |
| CCN(CC)CCCN(c1cc(OC)cc2nccnc12)S(=O)(=O)c1ccc(C)cc1 | – | > 100 µM | > 100 µM | > 100 µM | > 100 µM | – |
| COc1cccc(N2C(=O)c3c(c4[nH]c5ccccc5c4c4ccc(C(C)(C)C)cc34)C2=O)c1 | > 100 µM | > 100 µM | > 100 µM | > 100 µM | > 100 µM | – |
| CC(C)(C)NNC(=O)/C(=C/c1ccc(Oc2ccc(Cl)c(Cl)c2)cc1)NC(=O)c1ccccc1 | > 100 µM | > 100 µM | > 100 µM | > 100 µM | > 100 µM | – |
| O=C(CCN1CCN(c2cccc(Cl)c2)CC1)N1CCc2c([nH]c3ccccc23)C1c1cccnc1 (stereo not given) | 9.97 µM | 25.4 µM | 20.1 µM | 19.6 µM | > 100 µM | GI50 (LXFL 529 NSCLC): 6.24 µM; GI50 (DLD-1 colon): 8.09 µM; GI50 (KM20L2 colon): 4.71 µM; GI50 (RXF-631 renal): 8.64 µM |
| O=P(c1ccccc1)(c1ccccc1)C1CC=C(c2ccccc2)C2(CCCC2)C1 (stereo not given) | > 100 µM | > 100 µM | > 100 µM | > 100 µM | > 100 µM | – |
| O=C1NC(=O)C(C(=O)C(=O)Nc2ccc(Br)cc2)C(=O)N1 | > 100 µM | > 100 µM | > 100 µM | > 100 µM | > 100 µM | – |
| COc1ccc(OCC(=O)O)c2c1CCC(C(C)C)C2=O (stereo not given) | > 100 µM | > 100 µM | > 100 µM | > 100 µM | > 100 µM | – |
| CCC/C(=N\NC(=S)N1CCN(c2ccccn2)CC1)c1ccccn1 | > 10 µM and 4.24 µM | 1.33 µM and 1.34 µM | 1.58 µM | 0.0757 µM and 0.241 µM | > 10 µM and 2.34 µM | GI50 (SNB-78 CNS): 1.08 µM; TGI (DU-145 prostate): 2.37 µM; TGI (HS 578T breast): 3.76 µM; TGI (MDA-N): 1.92 µM; GI50 (RXF-631 renal): 0.0384 µM |
| CC(=O)N(C)OC(=O)CC(=O)c1ccccc1 | > 100 µM | > 100 µM | > 100 µM | > 100 µM | > 100 µM | – |
| CC(C)C(C(=O)O)N(CC1(O)OCC(O)C(O)C1O)N=O (stereo not given) | > 100 µM | > 100 µM | > 100 µM | > 100 µM | > 100 µM | – |
| C/C(=N\N=C(N)N)C(CN(CC(C)C)CC(C)C)C(=O)Nc1ccc(C)cc1C (stereo not given) | > 100 µM | > 100 µM | > 100 µM | > 100 µM | > 100 µM | – |
| CCCCCCCCCCCCCS(=O)(=O)O | > 100 µM | > 100 µM | > 100 µM | > 100 µM | > 100 µM | – |
| COC(=O)C1(C)C=C(Nc2ccccc2)C(=O)N1c1ccccc1 (stereo not given) | > 100 µM | > 100 µM | – | > 100 µM | > 100 µM | – |
| CSC(=S)c1ccc(C(=S)SC)cc1 | > 100 µM | > 100 µM | > 100 µM | > 100 µM | > 100 µM | – |
| Cc1ccc(S(=O)(=O)N/N=C(\CCN2CCCC2)CC(c2ccccc2)c2c(O)c3ccccc3oc2=O)cc1 (stereo not given) | > 100 µM | > 100 µM | > 100 µM | > 100 µM | > 100 µM | – |
